Reference: US9879050B2, “Substituted urea depsipeptide analogs as activators of the CLPP endopeptidase” (priority 2013, dated 2018)
Converted amounts (≈) assume the structure as drawn. Like-named read-outs stand apart in the source and are kept apart here. *1 amine or outer side, *2 acyl side, *3 side chain or, on linkers, in order; H or OH if unused. Where a SMILES comes first, the peptide text is derived from it. Bridges are numbered along the chain shown (N, C = ends). [ ]: non-standard residue; d: D form. The star is where a group is joined. Phe(3,5-F2) = N[C@@H](Cc1cc(F)cc(F)c1)C(=O)O; NHPh(4-CF3) = FC(F)(F)c1ccc(N*)cc1; Heptenoyl(2E) = CCCC/C=C/C(=O)*; aThr = C[C@H](O)[C@H](N)C(=O)O; Pip = O=C(O)[C@@H]1CCCCN1; CO = O=C([*:1])[*:2]

Assays:
[1] = molecular target: T1, Sa-ClpP (Staphylococcus aureus, UniProt Q2G036); test: ADEP displacement fluorescence polarization assay; assay type: binding, S. aureus
T1 construct: made in house; host or cells: E. coli BL21 (DE3)
T1 sequence (Q2G036 whole entry): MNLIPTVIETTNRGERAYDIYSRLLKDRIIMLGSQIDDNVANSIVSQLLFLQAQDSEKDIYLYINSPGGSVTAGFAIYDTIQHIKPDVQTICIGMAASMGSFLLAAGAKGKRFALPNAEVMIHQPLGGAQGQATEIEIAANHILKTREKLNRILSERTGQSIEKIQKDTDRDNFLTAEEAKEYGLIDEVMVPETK
In short: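 Displacement of TAMRA-labelled ADEP 2591 probe (50 nM) from 1 μM Sa-ClpP, pre-equilibrated 1 h in Tris·HCl pH 8.0 with 2% DMSO, then 120 min at room temperature with compound, triplicate. Polarization (mP) read ex 530/em 579 nm, normalised to 20 μM ADEP 2378 and DMSO controls; four-parameter fit.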

[2] = test system: S. aureus ATCC 29213; test: Minimal inhibitory concentration, microbroth dilution; assay type: cell-based; settings: Staphylococcus aureus, ATCC29213, read-out: Minimal Inhibitory Concentration S. aureus ATCC 29213
In short: (§1)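 MICs were determined by CLSI broth microdilution, using two-fold compound dilutions from a final 200 μM and about 10^5 cfu/mL inoculum. Plates were incubated aerobically at 37 °C overnight. The MIC was read visually as the lowest concentration preventing growth.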

[3] = test system: B. subtilis ATCC 23857; test: as above; assay type: cell-based; settings: Bacillus subtilis, ATCC23857, read-out: Minimal Inhibitory Concentration B. subtilis ATCC 23857
In short: as §1

[4] = test system: S. pyogenes ATCC 700294; test: as above; assay type: cell-based; settings: Streptococcus pyogenes, ATCC700294, read-out: Minimal Inhibitory Concentration S. pyogenes ATCC 700294
In short: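 Twofold serial dilutions in broth per CLSI M7-A7 microbroth dilution, incubated aerobically overnight at 37° C. MIC read visually as lowest concentration preventing bacterial growth.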

[5] = molecular target: T1, Sa-ClpP; test: ClpP activation, EnzCheck Protease Assay with Bodipy-FL casein (second described method); assay type: biochemical, S. aureus
In short: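 Sa-ClpP (2 μM in master mix) with Bodipy-FL casein (2 μM in master mix) in Tris-HCl pH 8.0, 0.01% Triton X-100, compounds in 2% DMSO, triplicate. Fluorescence (ex 485/em 520 nm) followed 30 min; degradation slopes normalized to ADEP4 and DMSO controls, EC50 and % activation by four-parameter fit.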

[6] = 1 μM Sa-ClpP, 50 nM FP probe ADEP 2591, read-out: ADEP Displacement IC50
[7] = read-out: ClpP Activation EC50 (converted)

Compound	IC50 [1, 6] [µM]	MIC [2] [µM]	MIC [3] [µM]	MIC [4] [µM]	EC50 [5, 7] [µM]	IC50 [1] [µM]	EC50 [5] [µM]
C[C@@H]1C[C@H]2C(=O)OC[C@H](NC(=O)[C@H](Cc3ccccc3)NC(=O)Nc3ccc4c(c3)CCN4C)C(=O)N3CCC[C@H]3C(=O)N3CCCC[C@H]3C(=O)N[C@@H](C)C(=O)N2C1 [Compound 11, (S)—N-((2R,6S,8aS,14aS,20S,23aS)-2,6-Dimethyl-5,8,14,19,23-Pentaoxooctadecahydro-1H,5H,14H,19H-Pyrido[2,1-I]Dipyrrolo[2,1-C:2′,1′-L][1]Oxa[4,7,10,13]Tetraazacyclohexadecin-20-Yl)-2-(3-(1-Methylindolin-5-Yl)Ureido)-3-Phenylpropanamide]	4.45 ± 0.3	2.5 (≈ 2 µg/mL)	1.25 (≈ 0.999 µg/mL)	0.6 (≈ 0.479 µg/mL)	1.1	–	–
Cc1ccc(NC(=O)N[C@@H](Cc2cc(F)cc(F)c2)C(=O)N[C@H]2COC(=O)[C@@H]3C[C@@H](C)CN3C(=O)[C@H](C)NC(=O)[C@@H]3CCCCN3C(=O)[C@@H]3CCCN3C2=O)cc1 [Compound 24, (S)-3-(3,5-Difluorophenyl)-N-((2R,6S,8aS,14aS,20S,23aS)-2,6-Dimethyl-5,8,14,19,23-Pentaoxooctadecahydro-1H,5H,14H,19H-Pyrido[2,1-I]Dipyrrolo[2,1-C:2′,1′-L][1]Oxa[4,7,10,13]Tetraazacyclohexadecin-20-Yl)-2-(3-(P-Tolyl)Ureido)Propanamide]	8.6 ± 0.5	0.5 (≈ 0.397 µg/mL)	2.2 (≈ 1.75 µg/mL)	0.5 (≈ 0.397 µg/mL)	0.4	–	–
C[C@@H]1C[C@H]2C(=O)OC[C@H](NC(=O)[C@H](Cc3ccccc3)NC(=O)Nc3ccc(N(C)C)cc3)C(=O)N3CCC[C@H]3C(=O)N3CCCC[C@H]3C(=O)N[C@@H](C)C(=O)N2C1 [Compound 5, (S)—N-((2R,6S,8aS,14aS,20S,23aS)-2,6-Dimethyl-5,8,14,19,23-Pentaoxooctadecahydro-1H,5H,14H,19H-Pyrido[2,1-1]Dipyrrolo[2,1-C:2′,1′-L][1]Oxa[4,7,10,13]Tetraazacyclohexadecin-20-Yl)-2-(3-(4-(Dimethylamino)Phenyl)Ureido)-3-Phenylpropanamide]	28 ± 2.3	6.25 (≈ 4.92 µg/mL)	0.78 (≈ 0.614 µg/mL)	0.78 (≈ 0.614 µg/mL)	1.5	–	–
C[C@@H]1NC(=O)[C@@H]2CCCCN2C(=O)[C@@H]2CCCN2C(=O)[C@@H](NC(=O)[C@H](Cc2cc(F)cc(F)c2)NC(=O)Nc2ccc(C(F)(F)F)cc2)[C@H](C)OC(=O)[C@@H]2CCCN2C1=O [Compound 16, (S)-3-(3,5-Difluorophenyl)-N-((6S,8aS,14aS,20S,21 S,23aS)-6,21-Dimethyl-5,8,14,19,23-Pentaoxooctadecahydro-1H,5H,14H,19H-Pyrido[2,1-I]Dipyrrolo[2,1-C:2′,1′-L][1]Oxa[4,7,10,13]Tetraazacyclohexadecin-20-Yl)-2-(3-(4-(Trifluoromethyl)Phenyl)Ureido)Propanamide] ({NHPh(4-CF3)-CO}-[Phe(3,5-F2)][aThr]P[Pip]AP; ester 2-C)	8.3 ± 0.6	0.4 (≈ 0.339 µg/mL)	0.4 (≈ 0.339 µg/mL)	1.5 (≈ 1.27 µg/mL)	0.55	–	–
Cc1ccc(NC(=O)N[C@@H](Cc2cc(F)cc(F)c2)C(=O)N[C@@H]2C(=O)N3CCC[C@H]3C(=O)N3CCCC[C@H]3C(=O)N[C@@H](C)C(=O)N3C[C@@H](C)C[C@H]3C(=O)O[C@H]2C)cc1 [Compound 18, (S)-3-(3,5-Difluorophenyl)-2-(3-(P-Tolyl)Ureido)-N-((2R,6S,8aS,14aS,20S,21S,23aS)-2,6,21-Trimethyl-5,8,14,19,23-Pentaoxooctadecahydro-1H,5H,14H,19H-Pyrido[2,1-I]Dipyrrolo[2,1-C:2′,1′-L][1]Oxa[4,7,10,13]Tetraazacyclohexadecin-20-Yl)Propanamide]	5.6 ± 0.3	0.1 (≈ 0.0808 µg/mL)	< 0.1	< 0.1	0.32	–	–
C[C@@H]1C[C@H]2C(=O)OC[C@H](NC(=O)[C@H](Cc3ccccc3)NC(=O)Nc3ccccc3Cl)C(=O)N3CCC[C@H]3C(=O)N3CCCC[C@H]3C(=O)N[C@@H](C)C(=O)N2C1 [Compound 7, (S)-2-(3-(2-Chlorophenyl)Ureido)-N-((2R,6S,8aS,14aS,20S,23aS)-2,6-Dimethyl-5,8,14,19,23-Pentaoxooctadecahydro-1H,5H,14H,19H-Pyrido[2,1-I]Dipyrrolo[2,1-C:2′,1′-L][1]Oxa[4,7,10,13]Tetraazacyclohexadecin-20-Yl)-3-Phenylpropanamide]	130 ± 11.3	12.5 (≈ 9.73 µg/mL)	6.25 (≈ 4.86 µg/mL)	3.13 (≈ 2.44 µg/mL)	1.6	–	–
CCCC/C=C/C(=O)N[C@@H](Cc1cc(F)cc(F)c1)C(=O)N[C@@H]1C(=O)N2CCC[C@H]2C(=O)N2CCCC[C@H]2C(=O)N[C@@H](C)C(=O)N2CCC[C@H]2C(=O)O[C@H]1C [ADEP 2719, reference compound] ({Heptenoyl(2E)}-[Phe(3,5-F2)][aThr]P[Pip]AP; ester 2-C)	6.2 ± 0.3	–	–	–	0.38 ± 0.01	–	–
Cc1ccc(NC(=O)N[C@@H](Cc2ccccc2)C(=O)N[C@H]2COC(=O)[C@@H]3C[C@@H](C)CN3C(=O)[C@H](C)NC(=O)[C@@H]3CCCCN3C(=O)[C@@H]3CCCN3C2=O)cc1 [Compound 23, (S)—N-((2R,6S,8aS,14aS,20S,23aS)-2,6-Dimethyl-5,8,14,19,23-Pentaoxooctadecahydro-1H,5H,14H,19H-Pyrido[2,1-I]Dipyrrolo[2,1-C:2′,1′-L][1]Oxa[4,7,10,13]Tetraazacyclohexadecin-20-Yl)-3-Phenyl-2-(3-(P-Tolyl)Ureido)Propanamide]	7.1 ± 0.3	0.4 (≈ 0.303 µg/mL)	< 0.2	< 0.2	0.5	–	–
Cc1ccc(NC(=O)N[C@@H](Cc2cc(F)cc(F)c2)C(=O)N[C@@H]2C(=O)N3CCC[C@H]3C(=O)N3CCCC[C@H]3C(=O)N[C@@H](C)C(=O)N3CCC[C@H]3C(=O)O[C@H]2C)cc1 [Compound 15, (S)-3-(3,5-Difluorophenyl)-N-((6S,8aS,14aS,20S,21 S,23aS)-6,21-Dimethyl-5,8,14,19,23-Pentaoxooctadecahydro-1H,5H,14H,19H-Pyrido[2,1-I]Dipyrrolo[2,1-C:2′,1′-L][1]Oxa[4,7,10,13]Tetraazacyclohexadecin-20-Yl)-2-(3-(P-Tolyl)Ureido)Propanamide]	8.4 ± 0.2	0.6 (≈ 0.476 µg/mL)	< 0.1	0.6 (≈ 0.476 µg/mL)	0.7	–	–
COc1ccc(NC(=O)N[C@@H](Cc2ccccc2)C(=O)N[C@H]2COC(=O)[C@@H]3C[C@@H](C)CN3C(=O)[C@H](C)NC(=O)[C@@H]3CCCCN3C(=O)[C@@H]3CCCN3C2=O)cc1 [Compound 6, (S)—N-((2R,6S,8aS,14aS,20S,23aS)-2,6-Dimethyl-5,8,14,19,23-Pentaoxooctadecahydro-1H,5H,14H,19H-Pyrido[2,1-1]Dipyrrolo[2,1-C:2′,1′-L][1]Oxa[4,7,10,13]Tetraazacyclohexadecin-20-Yl)-2-(3-(4-Methoxyphenyl)Ureido)-3-Phenylpropanamide]	27.7 ± 1.5	3.13 (≈ 2.42 µg/mL)	1.56 (≈ 1.21 µg/mL)	0.39 (≈ 0.302 µg/mL)	0.8	–	–
C[C@@H]1C[C@H]2C(=O)OC[C@H](NC(=O)[C@H](Cc3ccccc3)NC(=O)Nc3cccc(Cl)c3)C(=O)N3CCC[C@H]3C(=O)N3CCCC[C@H]3C(=O)N[C@@H](C)C(=O)N2C1 [Compound 9, (S)-2-(3-(3-Chlorophenyl)Ureido)-N-((2R,6S,8aS,14aS,20S,23aS)-2,6-Dimethyl-5,8,14,19,23-Pentaoxooctadecahydro-1H,5H,14H,19H-Pyrido[2,1-I]Dipyrrolo[2,1-C:2′,1′-L][1]Oxa[4,7,10,13]Tetraazacyclohexadecin-20-Yl)-3-Phenylpropanamide]	25.4 ± 2.2	3.13 (≈ 2.44 µg/mL)	1.56 (≈ 1.21 µg/mL)	1.56 (≈ 1.21 µg/mL)	1.1	–	–
C[C@H]1C[C@H]2C(=O)O[C@@H](C)[C@H](NC(=O)[C@H](Cc3cc(F)cc(F)c3)NC(=O)Nc3ccc4c(c3)OCO4)C(=O)N3CCC[C@H]3C(=O)N3CCCC[C@H]3C(=O)N[C@@H](C)C(=O)N2C1 [Compound 20, (S)-2-(3-(Benzo[D][1,3]Dioxol-5-Yl)Ureido)-3-(3,5-Difluorophenyl)-N-((2R,6S,8aS,14aS,20S,21 S,23aS)-2,6,21-Trimethyl-5,8,14,19,23-Pentaoxooctadecahydro-1H,5H,14H,19H-Pyrido[2,1-I]Dipyrrolo[2,1-C:2′,1′-L][1]Oxa[4,7,10,13]Tetraazacyclohexadecin-20-Yl)Propanamide]	–	–	–	–	–	6 ± 0.3	0.36
C[C@@H]1NC(=O)[C@@H]2CCCCN2C(=O)[C@@H]2CCCN2C(=O)[C@@H](NC(=O)[C@H](Cc2cc(F)cc(F)c2)NC(=O)Nc2ccc3c(c2)OCO3)[C@H](C)OC(=O)[C@@H]2CCCN2C1=O [Compound 17, (S)-2-(3-(Benzo[D][1,3]Dioxol-5-Yl)Ureido)-3-(3,5-Difluorophenyl)-N-((6S,8aS,14aS,20S,21 S,23aS)-6,21-Dimethyl-5,8,14,19,23-Pentaoxooctadecahydro-1H,5H,14H,19H-Pyrido[2,1-I]Dipyrrolo[2,1-C:2′,1′-L][1]Oxa[4,7,10,13]Tetraazacyclohexadecin-20-Yl)Propanamide]	–	–	–	–	–	7.2 ± 0.4	0.72
